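Step 1: Grow cells in 96-well plates. Step 2: Expose to compound for 48 hours at 5 concentrations. Step 3: Interpolate endpoints linearly; if unreached, use highest concentration. GI50 marks 50% less growth. Definition used: TGI = concentration required for complete inhibition of growth.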
test system: COLO 205 colon; assay: DTP human tumour cell line panel, 48 h

Row | SMILES | TGI
1 | CCOC(=O)[C@H](Cc1ccc(O)cc1)N=C1[C@H]2CCC[C@]1(O)[C@@](C)([N+](=O)[O-])C2 | > 100 µM
2 | CCNC1=C(NC(=O)CC)C(=O)c2ccccc2C1=O | > 100 µM
3 | CC1(C)OC2C(=O)C=C(COCc3ccccc3)C2O1 (stereo not drawn) | 41 µM
4 | CCC1(O)C(=O)OCc2c1cc1n(c2=O)Cc2cc3cc(N)ccc3nc2-1 (stereo not drawn) | 7.25 µM
5 | COC12c3ccccc3-c3ccccc3C1[C@H]1C(=O)OC(=O)[C@H]12 (stereo partly drawn) | > 10 µM
6 | Cc1ccc(S(=O)(=O)NCCSCCSCCNS(=O)(=O)c2ccc(C)cc2)cc1 | 41.2 µM
7 | COc1cc(C(c2ccc3c(c2)OCO3)N2C(=O)CCC2C(=O)O)cc(OC)c1OC (stereo not drawn) | > 100 µM

test system: RXF 393 renal; assay: DTP human tumour cell line panel, 48 h

Row | SMILES | TGI | GI50
8 | CCOC(=O)[C@H](Cc1ccc(O)cc1)N=C1[C@H]2CCC[C@]1(O)[C@@](C)([N+](=O)[O-])C2 | > 100 µM | 
9 | CCNC1=C(NC(=O)CC)C(=O)c2ccccc2C1=O | > 100 µM | 
10 | CC1(C)OC2C(=O)C=C(COCc3ccccc3)C2O1 (stereo not drawn) | 45.8 µM | 
11 | O=C(CSC1=NCCN1)Nc1ccccc1 | 33.3 µM | 
12 | CCC1(O)C(=O)OCc2c1cc1n(c2=O)Cc2cc3cc(N)ccc3nc2-1 (stereo not drawn) | 1.12 µM | 0.126 µM
13 | COC12c3ccccc3-c3ccccc3C1[C@H]1C(=O)OC(=O)[C@H]12 (stereo partly drawn) | > 10 µM | 
14 | Cc1ccc(S(=O)(=O)NCCSCCSCCNS(=O)(=O)c2ccc(C)cc2)cc1 | > 100 µM | 

test system: TK-10 renal; assay: DTP human tumour cell line panel, 48 h

Row | SMILES | TGI
15 | CCOC(=O)[C@H](Cc1ccc(O)cc1)N=C1[C@H]2CCC[C@]1(O)[C@@](C)([N+](=O)[O-])C2 | > 100 µM
16 | CCNC1=C(NC(=O)CC)C(=O)c2ccccc2C1=O | > 100 µM
17 | CC1(C)OC2C(=O)C=C(COCc3ccccc3)C2O1 (stereo not drawn) | > 100 µM
18 | O=C(CSC1=NCCN1)Nc1ccccc1 | 43.9 µM
19 | CCC1(O)C(=O)OCc2c1cc1n(c2=O)Cc2cc3cc(N)ccc3nc2-1 (stereo not drawn) | > 28.2 µM
20 | COC12c3ccccc3-c3ccccc3C1[C@H]1C(=O)OC(=O)[C@H]12 (stereo partly drawn) | > 10 µM
21 | Cc1ccc(S(=O)(=O)NCCSCCSCCNS(=O)(=O)c2ccc(C)cc2)cc1 | > 100 µM
22 | COc1cc(C(c2ccc3c(c2)OCO3)N2C(=O)CCC2C(=O)O)cc(OC)c1OC (stereo not drawn) | > 100 µM

test system: SF-539 CNS; assay: DTP human tumour cell line panel, 48 h

Row | SMILES | TGI
23 | CCOC(=O)[C@H](Cc1ccc(O)cc1)N=C1[C@H]2CCC[C@]1(O)[C@@](C)([N+](=O)[O-])C2 | > 100 µM
24 | CCNC1=C(NC(=O)CC)C(=O)c2ccccc2C1=O | > 100 µM
25 | CC1(C)OC2C(=O)C=C(COCc3ccccc3)C2O1 (stereo not drawn) | 60.3 µM
26 | CCC1(O)C(=O)OCc2c1cc1n(c2=O)Cc2cc3cc(N)ccc3nc2-1 (stereo not drawn) | < 0.01 µM
27 | COC12c3ccccc3-c3ccccc3C1[C@H]1C(=O)OC(=O)[C@H]12 (stereo partly drawn) | > 10 µM
28 | COc1cc(C(c2ccc3c(c2)OCO3)N2C(=O)CCC2C(=O)O)cc(OC)c1OC (stereo not drawn) | > 100 µM

test system: OVCAR-3 ovarian; assay: DTP human tumour cell line panel, 48 h

Row | SMILES | TGI
29 | CCOC(=O)[C@H](Cc1ccc(O)cc1)N=C1[C@H]2CCC[C@]1(O)[C@@](C)([N+](=O)[O-])C2 | > 100 µM
30 | CCNC1=C(NC(=O)CC)C(=O)c2ccccc2C1=O | > 100 µM
31 | O=C(CSC1=NCCN1)Nc1ccccc1 | 51.4 µM
32 | CCC1(O)C(=O)OCc2c1cc1n(c2=O)Cc2cc3cc(N)ccc3nc2-1 (stereo not drawn) | 0.469 µM
33 | COC12c3ccccc3-c3ccccc3C1[C@H]1C(=O)OC(=O)[C@H]12 (stereo partly drawn) | > 10 µM
34 | COc1cc(C(c2ccc3c(c2)OCO3)N2C(=O)CCC2C(=O)O)cc(OC)c1OC (stereo not drawn) | > 100 µM

test system: T-47D breast; assay: DTP human tumour cell line panel, 48 h

Row | SMILES | TGI
35 | CCNC1=C(NC(=O)CC)C(=O)c2ccccc2C1=O | > 100 µM
36 | CC1(C)OC2C(=O)C=C(COCc3ccccc3)C2O1 (stereo not drawn) | 56.3 µM
37 | O=C(CSC1=NCCN1)Nc1ccccc1 | 61.2 µM
38 | CCC1(O)C(=O)OCc2c1cc1n(c2=O)Cc2cc3cc(N)ccc3nc2-1 (stereo not drawn) | > 100 µM
39 | COC12c3ccccc3-c3ccccc3C1[C@H]1C(=O)OC(=O)[C@H]12 (stereo partly drawn) | > 10 µM
40 | COc1cc(C(c2ccc3c(c2)OCO3)N2C(=O)CCC2C(=O)O)cc(OC)c1OC (stereo not drawn) | > 100 µM

test system: SK-OV-3 ovarian; assay: DTP human tumour cell line panel, 48 h

Row | SMILES | TGI
41 | CCOC(=O)[C@H](Cc1ccc(O)cc1)N=C1[C@H]2CCC[C@]1(O)[C@@](C)([N+](=O)[O-])C2 | > 100 µM
42 | CCNC1=C(NC(=O)CC)C(=O)c2ccccc2C1=O | > 100 µM
43 | CC1(C)OC2C(=O)C=C(COCc3ccccc3)C2O1 (stereo not drawn) | 22 µM
44 | CCC1(O)C(=O)OCc2c1cc1n(c2=O)Cc2cc3cc(N)ccc3nc2-1 (stereo not drawn) | 0.207 µM
45 | COC12c3ccccc3-c3ccccc3C1[C@H]1C(=O)OC(=O)[C@H]12 (stereo partly drawn) | > 10 µM
46 | Cc1ccc(S(=O)(=O)NCCSCCSCCNS(=O)(=O)c2ccc(C)cc2)cc1 | > 100 µM
47 | COc1cc(C(c2ccc3c(c2)OCO3)N2C(=O)CCC2C(=O)O)cc(OC)c1OC (stereo not drawn) | > 100 µM

test system: PC-3 prostate; assay: DTP human tumour cell line panel, 48 h

Row | SMILES | TGI
48 | CCNC1=C(NC(=O)CC)C(=O)c2ccccc2C1=O | > 100 µM
49 | CC1(C)OC2C(=O)C=C(COCc3ccccc3)C2O1 (stereo not drawn) | > 100 µM
50 | O=C(CSC1=NCCN1)Nc1ccccc1 | 52.6 µM
51 | CCC1(O)C(=O)OCc2c1cc1n(c2=O)Cc2cc3cc(N)ccc3nc2-1 (stereo not drawn) | > 100 µM
52 | COC12c3ccccc3-c3ccccc3C1[C@H]1C(=O)OC(=O)[C@H]12 (stereo partly drawn) | > 10 µM
53 | Cc1ccc(S(=O)(=O)NCCSCCSCCNS(=O)(=O)c2ccc(C)cc2)cc1 | > 100 µM
54 | COc1cc(C(c2ccc3c(c2)OCO3)N2C(=O)CCC2C(=O)O)cc(OC)c1OC (stereo not drawn) | > 100 µM

test system: MCF7 breast; assay: DTP human tumour cell line panel, 48 h

Row | SMILES | TGI
55 | CCOC(=O)[C@H](Cc1ccc(O)cc1)N=C1[C@H]2CCC[C@]1(O)[C@@](C)([N+](=O)[O-])C2 | > 100 µM
56 | CCNC1=C(NC(=O)CC)C(=O)c2ccccc2C1=O | > 100 µM
57 | CC1(C)OC2C(=O)C=C(COCc3ccccc3)C2O1 (stereo not drawn) | > 100 µM
58 | CCC1(O)C(=O)OCc2c1cc1n(c2=O)Cc2cc3cc(N)ccc3nc2-1 (stereo not drawn) | > 54.3 µM
59 | COC12c3ccccc3-c3ccccc3C1[C@H]1C(=O)OC(=O)[C@H]12 (stereo partly drawn) | > 10 µM
60 | Cc1ccc(S(=O)(=O)NCCSCCSCCNS(=O)(=O)c2ccc(C)cc2)cc1 | > 100 µM
61 | COc1cc(C(c2ccc3c(c2)OCO3)N2C(=O)CCC2C(=O)O)cc(OC)c1OC (stereo not drawn) | > 100 µM

test system: K-562 leukemia; assay: DTP human tumour cell line panel, 48 h

Row | SMILES | TGI
62 | CCOC(=O)[C@H](Cc1ccc(O)cc1)N=C1[C@H]2CCC[C@]1(O)[C@@](C)([N+](=O)[O-])C2 | > 100 µM
63 | CCNC1=C(NC(=O)CC)C(=O)c2ccccc2C1=O | > 100 µM
64 | CC1(C)OC2C(=O)C=C(COCc3ccccc3)C2O1 (stereo not drawn) | > 100 µM
65 | O=C(CSC1=NCCN1)Nc1ccccc1 | > 100 µM
66 | CCC1(O)C(=O)OCc2c1cc1n(c2=O)Cc2cc3cc(N)ccc3nc2-1 (stereo not drawn) | 31.3 µM
67 | COC12c3ccccc3-c3ccccc3C1[C@H]1C(=O)OC(=O)[C@H]12 (stereo partly drawn) | > 10 µM
68 | Cc1ccc(S(=O)(=O)NCCSCCSCCNS(=O)(=O)c2ccc(C)cc2)cc1 | > 100 µM
69 | COc1cc(C(c2ccc3c(c2)OCO3)N2C(=O)CCC2C(=O)O)cc(OC)c1OC (stereo not drawn) | > 100 µM

test system: HCT-15 colon; assay: DTP human tumour cell line panel, 48 h

Row | SMILES | TGI
70 | CCOC(=O)[C@H](Cc1ccc(O)cc1)N=C1[C@H]2CCC[C@]1(O)[C@@](C)([N+](=O)[O-])C2 | > 100 µM
71 | CCNC1=C(NC(=O)CC)C(=O)c2ccccc2C1=O | > 100 µM
72 | CC1(C)OC2C(=O)C=C(COCc3ccccc3)C2O1 (stereo not drawn) | > 100 µM
73 | O=C(CSC1=NCCN1)Nc1ccccc1 | > 100 µM
74 | CCC1(O)C(=O)OCc2c1cc1n(c2=O)Cc2cc3cc(N)ccc3nc2-1 (stereo not drawn) | 3.55 µM
75 | COC12c3ccccc3-c3ccccc3C1[C@H]1C(=O)OC(=O)[C@H]12 (stereo partly drawn) | > 10 µM
76 | COc1cc(C(c2ccc3c(c2)OCO3)N2C(=O)CCC2C(=O)O)cc(OC)c1OC (stereo not drawn) | > 100 µM

test system: RPMI-8226 leukemia; assay: DTP human tumour cell line panel, 48 h

Row | SMILES | TGI
77 | CCOC(=O)[C@H](Cc1ccc(O)cc1)N=C1[C@H]2CCC[C@]1(O)[C@@](C)([N+](=O)[O-])C2 | > 100 µM
78 | CCNC1=C(NC(=O)CC)C(=O)c2ccccc2C1=O | > 100 µM
79 | CC1(C)OC2C(=O)C=C(COCc3ccccc3)C2O1 (stereo not drawn) | > 100 µM
80 | O=C(CSC1=NCCN1)Nc1ccccc1 | > 100 µM
81 | CCC1(O)C(=O)OCc2c1cc1n(c2=O)Cc2cc3cc(N)ccc3nc2-1 (stereo not drawn) | 4.94 µM
82 | COC12c3ccccc3-c3ccccc3C1[C@H]1C(=O)OC(=O)[C@H]12 (stereo partly drawn) | > 10 µM
83 | COc1cc(C(c2ccc3c(c2)OCO3)N2C(=O)CCC2C(=O)O)cc(OC)c1OC (stereo not drawn) | > 100 µM

test system: NCI-H460 lung; assay: DTP human tumour cell line panel, 48 h

Row | SMILES | TGI
84 | CCOC(=O)[C@H](Cc1ccc(O)cc1)N=C1[C@H]2CCC[C@]1(O)[C@@](C)([N+](=O)[O-])C2 | > 100 µM
85 | CCNC1=C(NC(=O)CC)C(=O)c2ccccc2C1=O | > 100 µM
86 | O=C(CSC1=NCCN1)Nc1ccccc1 | > 100 µM
87 | CCC1(O)C(=O)OCc2c1cc1n(c2=O)Cc2cc3cc(N)ccc3nc2-1 (stereo not drawn) | 0.189 µM
88 | COC12c3ccccc3-c3ccccc3C1[C@H]1C(=O)OC(=O)[C@H]12 (stereo partly drawn) | > 10 µM
89 | Cc1ccc(S(=O)(=O)NCCSCCSCCNS(=O)(=O)c2ccc(C)cc2)cc1 | > 100 µM
90 | COc1cc(C(c2ccc3c(c2)OCO3)N2C(=O)CCC2C(=O)O)cc(OC)c1OC (stereo not drawn) | > 100 µM

test system: UACC-257 melanoma; assay: DTP human tumour cell line panel, 48 h

Row | SMILES | TGI
91 | CCOC(=O)[C@H](Cc1ccc(O)cc1)N=C1[C@H]2CCC[C@]1(O)[C@@](C)([N+](=O)[O-])C2 | > 100 µM
92 | CCNC1=C(NC(=O)CC)C(=O)c2ccccc2C1=O | > 100 µM
93 | CC1(C)OC2C(=O)C=C(COCc3ccccc3)C2O1 (stereo not drawn) | > 100 µM
94 | O=C(CSC1=NCCN1)Nc1ccccc1 | 40.2 µM
95 | CCC1(O)C(=O)OCc2c1cc1n(c2=O)Cc2cc3cc(N)ccc3nc2-1 (stereo not drawn) | 1.89 µM
96 | COC12c3ccccc3-c3ccccc3C1[C@H]1C(=O)OC(=O)[C@H]12 (stereo partly drawn) | > 10 µM
97 | Cc1ccc(S(=O)(=O)NCCSCCSCCNS(=O)(=O)c2ccc(C)cc2)cc1 | > 100 µM
98 | COc1cc(C(c2ccc3c(c2)OCO3)N2C(=O)CCC2C(=O)O)cc(OC)c1OC (stereo not drawn) | > 100 µM

test system: UO-31 renal; assay: DTP human tumour cell line panel, 48 h

Row | SMILES | TGI
99 | CCOC(=O)[C@H](Cc1ccc(O)cc1)N=C1[C@H]2CCC[C@]1(O)[C@@](C)([N+](=O)[O-])C2 | > 100 µM
100 | CC1(C)OC2C(=O)C=C(COCc3ccccc3)C2O1 (stereo not drawn) | 50.1 µM
101 | O=C(CSC1=NCCN1)Nc1ccccc1 | > 100 µM
102 | CCC1(O)C(=O)OCc2c1cc1n(c2=O)Cc2cc3cc(N)ccc3nc2-1 (stereo not drawn) | 0.0864 µM
